In paper PMC12259270, “Sensory neuron–expressed FGF13 controls nociceptive signaling in diabetic neuropathy models” (The Journal of Clinical Investigation, 2025):
Residues, ends and D or L forms follow the SMILES beside them. *: point of attachment. Cbz = O=C(OCc1ccccc1)*; NHPh = c1ccc(N*)cc1; OtBu = CC(C)(C)O*

Test system: Na+ currents in hIPSC-derived sensory neurons (RealDRG)
Assay: Whole-cell voltage clamp, hIPSC-derived sensory neurons (RealDRG) with Nav1.7 blocker ProTx-II
Type: cell-based, human
Conditions: for Activation / Peak Density / Steady-State inactivation / Tau (τ) / Long-term inactivation, 2nd Pulse / Long-term inactivation, 3rd Pulse / Long-term inactivation, 4th Pulse: RealDRG
Procedure: Next, we conducted whole-cell patch-clamp electrophysiological recordings in hIPSC-derived sensory neurons under three conditions: unstimulated and treated with 0.07% ethanol (capsaicin vehicle), treated with capsaicin (100 nM, 10 minutes), and treated with capsaicin plus SB-366791 (10 μM), a selective TRPV1 inhibitor. Each group was exposed to either vehicle (0.01% DMSO) or PW164 (50 μM), with all recordings performed in the presence of the Nav1.8 blocker A-803467 (300 nM) ([41]). The experimental groups are color coded in Figure 2A. Capsaicin caused potentiation of INa (Figure 2A) and induced hyperpolarizing shifts in the V1/2 of activation (Figure 2B) and SSI (Figure 2C). […] Next, we investigated whether silencing FGF13 could replicate PW164’s effects and prevent additional activity of the compound. hIPSC-derived sensory neurons were transfected with a previously validated pAAV-shFGF13-GFP construct ([42]) (Supplemental Figure 8). […] Neither PW164 nor FGF13 silencing affected Na+ currents in neurons transfected with pAAV-shCTRL-GFP or pAAV-shFGF13-GFP, whether unstimulated or treated with capsaicin in the presence of ProTx II (Supplemental Figure 9 and Supplemental Table 6). Thus, PW164 selectively modulated FGF13-dependent Na^+ current sensitization via TRPV1, with FGF13 silencing mimicking and validating PW164’s effect. […]
Whole-cell patch clamp electrophysiology
HEK293-Nav1.7 cells, HEK293 stably expressing human Nav1.6 (HEK-Nav1.6), HEK293 stably expressing human Nav1.5 (HEK-Nav1.5), human hIPSC-derived sensory neurons (RealDRGTM from Anatomic Incorporated 1020F1-1M) and donor-derived DRG neurons were plated at low density on glass coverslips and processed for whole-cell patch clamp electrophysiology in voltage-clamp and/or current clamp mode. Whole-cell patch electrophysiological experiments were conducted following previously published studies (26). Current densities were obtained by dividing INa amplitude by membrane capacitance. Current –voltage relationships were generated by plotting current density as a function of the […]. Conductance (G Na) was calculated by the […]
where INa is the current amplitude at voltage Vm, and Erev is the Na+ reversal potential.
Activation curves were derived by plotting normalized GNa as a function of test potential and fitted using […]
Where GNa,Max is the maximum conductance, Va is the membrane potential of half-maximal activation, Em is the membrane voltage and k is the slope factor. For steady -state inactivation, normalized current amplitude (INa/INa,Max) at the test potential was plotted as a function of prepulse potential (Vm) and fitted using the […]
Where Vh is the potential of half-maximal inactivation, E m is the membrane voltage, and k is the slope factor.
Transient INa inactivation decay was estimated with the standard exponential equation. Inactivation time constant (tau, τ) was fitted with the following equation: […]
where I(t) is the amplitude of the current at time t and Iss is the steady-state current during a single voltage-step.
The goodness of fitting was determined by correlation coefficient (R), and the cutoff of R was set at 0.85. To observe effects on long-term inactivation (LTI), a four-step protocol was employed during which cells were subjected to four 0 mV, 20 ms depolarization pulses separated by −90 mV, 40 ms recovery intervals. To control for various cell sizes, the current densities were calculated by dividing INa peak current amplitude/membrane capacitance (Cm). To represent the fraction of channels entering into LTI, the peak INa observed during depolarization cycles 2-4 was normalized to the peak INa observed during depolarization cycle 1 (INa/INa,Cycle 1) and plotted as a function of the depolarization cycle.
The cumulative (frequency-dependent) use-dependency was determined by applying 20 pulses with a depolarization to −10 mV (50 ms duration) and 50 ms recovery intervals with a train of 20 pulses at 10 Hz from a holding potential at -70 mV. […]

[1] = + Nav1.7 blocker ProTx-II, Cap+ - PW164
[2] = + Nav1.7 blocker ProTx-II, Cap+ PW164
[3] = + Nav1.7 blocker ProTx-II, Naïve + PW164
[4] = + Nav1.7 blocker ProTx-II, Naïve - PW164
[5] = + Nav1.7 blocker ProTx-II, Naive + ZL192
[6] = + Nav1.7 blocker ProTx-II, Naïve + ZL192

SMILES: COC(=O)[C@@H](NC(=O)[C@H](CCC(=O)OC(C)(C)C)NC(=O)[C@H](CC(C)C)NC(=O)[C@@H]1CCCN1C(=O)OCc1ccccc1)C(C)C [PW164] (Cbz-PLE(OtBu)V-OMe)
- effect on capsaicin-potentiated Na+ currents with ProTx-II (ProTx-II 10 nM, Suppl Fig 7): does not have any effect
- Activation [1]: −29.15 ± 0.86 mV
- Peak Density [1]: −80.16 ± 8.05 pA/pF
- Steady-State inactivation [1]: −61.95 ± 1.29 mV
- Tau (τ) [1]: 0.98 ± 0.08 ms
- Long-term inactivation, 2nd Pulse [2]: −118.43 ± 3.81 % maximal Na+ current
- Long-term inactivation, 3rd Pulse [2]: −120.42 ± 4.69 % maximal Na+ current
- Long-term inactivation, 2nd Pulse [3]: −105.72 ± 2.72 % maximal Na+ current
- Long-term inactivation, 3rd Pulse [3]: −110.76 ± 2.72 % maximal Na+ current
- Long-term inactivation, 4th Pulse [3]: −113.94 ± 3.54 % maximal Na+ current
- Activation [4]: −29.68 ± 1.17 mV
- Peak Density [4]: −76.99 ± 6.01 pA/pF
- Steady-State inactivation [4]: −61.23 ± 1.29 mV
- Tau (τ) [4]: 0.87 ± 0.04 ms

SMILES: CC(=O)N[C@@H](Cc1ccccc1)C(=O)N[C@@H](CC(C)C)C(=O)N1CCC[C@H]1C(=O)N[C@@H](CCCCN)C(=O)Nc1ccccc1 [ZL192] (Ac-FLPK-NHPh)
- UseDependency (Suppl. Figure S14D) (Control cells, pulse 1): 1
- UseDependency (Suppl. Figure S14D) (Control cells, pulse 3): 0.9097
- UseDependency (Suppl. Figure S14D) (Control cells, pulse 5): 0.8784
- UseDependency (Suppl. Figure S14D) (Control cells, pulse 10): 0.8714
- UseDependency (Suppl. Figure S14D) (Control cells, pulse 15): 0.8646
- UseDependency (Suppl. Figure S14D) (Control cells, pulse 20): 0.8556
- UseDependency (Suppl. Figure S14D) (Naive cells, pulse 1): 1
- UseDependency (Suppl. Figure S14D) (Naive cells, pulse 3): 0.9097
- UseDependency (Suppl. Figure S14D) (Naive cells, pulse 5): 0.8778
- UseDependency (Suppl. Figure S14D) (Naive cells, pulse 10): 0.8143
- UseDependency (Suppl. Figure S14D) (Naive cells, pulse 15): 0.7732
- UseDependency (Suppl. Figure S14D) (Naive cells, pulse 20): 0.7489
- Activation [5]: −27.64 ± 0.93 mV
- Peak Density [5]: −96.53 ± 4.85 pA/pF
- Steady-State inactivation [5]: −59.34 ± 1.61 mV
- Tau (τ) [5]: 1.33 ± 0.06 ms
- Long-term inactivation, 2nd Pulse [6]: −99.26 ± 0.91 % maximal Na+ current
- Long-term inactivation, 3rd Pulse [6]: −100.38 ± 1.08 % maximal Na+ current
- Long-term inactivation, 4th Pulse [6]: −100.45 ± 1.3 % maximal Na+ current
- Activation (+ ProTx-II, Control + ZL192): −30.93 ± 0.89 mV
- Long-term inactivation, 2nd Pulse (+ ProTx-II, Control + ZL192): −98.61 ± 0.74 % maximal Na+ current
- Long-term inactivation, 3rd Pulse (+ ProTx-II, Control + ZL192): −99.17 ± 0.84 % maximal Na+ current
- Long-term inactivation, 4th Pulse (+ ProTx-II, Control + ZL192): −98.95 ± 1.01 % maximal Na+ current
- Peak Density (+ ProTx-II, Control + ZL192): −101.87 ± 5.35 pA/pF
- Steady-State inactivation (+ ProTx-II, Control + ZL192): −53.15 ± 0.91 mV
- Tau (τ) (+ ProTx-II, Control + ZL192): 1.0 ± 0.04 ms
- Activation (+ ProTx-II, Sh + ZL192): −28.74 ± 1.12 mV
- Peak Density (+ ProTx-II, Sh + ZL192): −99.91 ± 8.28 pA/pF
- Steady-State inactivation (+ ProTx-II, Sh + ZL192): −62.97 ± 1.64 mV
- Tau (τ) (+ ProTx-II, Sh + ZL192): 1.27 ± 0.08 ms
- Long-term inactivation, 2nd Pulse (+ ProTx-II, Sh + Zl192): −96.65 ± 1.81 % maximal Na+ current
- Long-term inactivation, 3rd Pulse (+ ProTx-II, Sh + Zl192): −97.25 ± 2.18 % maximal Na+ current
- Long-term inactivation, 4th Pulse (+ ProTx-II, Sh + Zl192): −99.23 ± 3.28 % maximal Na+ current
- UseDependency (Suppl. Figure S14D) (ShFGF13 cells, pulse 1): 1
- UseDependency (Suppl. Figure S14D) (ShFGF13 cells, pulse 3): 0.9541
- UseDependency (Suppl. Figure S14D) (ShFGF13 cells, pulse 5): 0.9361
- UseDependency (Suppl. Figure S14D) (ShFGF13 cells, pulse 10): 0.8879
- UseDependency (Suppl. Figure S14D) (ShFGF13 cells, pulse 15): 0.8614
- UseDependency (Suppl. Figure S14D) (ShFGF13 cells, pulse 20): 0.8526
- activity on Na+ currents with ProTx-II (ZL192 50 μM, ProTx-II 10 nM, Suppl Fig 14): no activity
